Source: ChEMBL document CHEMBL5653615 (J Biol Chem, 2013)

Columns and labels:
[1] = target: T1, Rhodopsin kinase GRK7 (Homo sapiens) (UniProt Q8WTQ7); experiment: Inhibition of human GRK7 at 18.6 nM by HotSpot assay relative to control
T1 sequence (whole entry): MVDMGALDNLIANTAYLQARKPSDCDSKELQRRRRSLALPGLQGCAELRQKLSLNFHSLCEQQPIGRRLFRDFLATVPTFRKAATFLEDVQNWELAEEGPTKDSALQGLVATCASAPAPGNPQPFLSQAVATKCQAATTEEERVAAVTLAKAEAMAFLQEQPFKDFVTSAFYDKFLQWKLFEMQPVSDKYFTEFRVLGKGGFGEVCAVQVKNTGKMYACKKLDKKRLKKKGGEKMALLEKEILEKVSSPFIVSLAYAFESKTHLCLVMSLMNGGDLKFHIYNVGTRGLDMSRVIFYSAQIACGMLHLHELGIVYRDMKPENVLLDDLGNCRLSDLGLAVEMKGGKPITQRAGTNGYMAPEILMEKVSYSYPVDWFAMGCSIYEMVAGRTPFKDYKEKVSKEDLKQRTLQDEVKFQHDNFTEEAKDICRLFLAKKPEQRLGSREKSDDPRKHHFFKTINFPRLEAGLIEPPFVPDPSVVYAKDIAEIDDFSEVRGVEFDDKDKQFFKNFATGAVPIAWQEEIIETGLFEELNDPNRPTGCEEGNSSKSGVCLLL

[2] = target: T2, Ephrin type-B receptor 1 (Homo sapiens) (UniProt P54762); experiment: Inhibition of human EPHB1 at 18.6 nM by HotSpot assay relative to control
T2 sequence (whole entry): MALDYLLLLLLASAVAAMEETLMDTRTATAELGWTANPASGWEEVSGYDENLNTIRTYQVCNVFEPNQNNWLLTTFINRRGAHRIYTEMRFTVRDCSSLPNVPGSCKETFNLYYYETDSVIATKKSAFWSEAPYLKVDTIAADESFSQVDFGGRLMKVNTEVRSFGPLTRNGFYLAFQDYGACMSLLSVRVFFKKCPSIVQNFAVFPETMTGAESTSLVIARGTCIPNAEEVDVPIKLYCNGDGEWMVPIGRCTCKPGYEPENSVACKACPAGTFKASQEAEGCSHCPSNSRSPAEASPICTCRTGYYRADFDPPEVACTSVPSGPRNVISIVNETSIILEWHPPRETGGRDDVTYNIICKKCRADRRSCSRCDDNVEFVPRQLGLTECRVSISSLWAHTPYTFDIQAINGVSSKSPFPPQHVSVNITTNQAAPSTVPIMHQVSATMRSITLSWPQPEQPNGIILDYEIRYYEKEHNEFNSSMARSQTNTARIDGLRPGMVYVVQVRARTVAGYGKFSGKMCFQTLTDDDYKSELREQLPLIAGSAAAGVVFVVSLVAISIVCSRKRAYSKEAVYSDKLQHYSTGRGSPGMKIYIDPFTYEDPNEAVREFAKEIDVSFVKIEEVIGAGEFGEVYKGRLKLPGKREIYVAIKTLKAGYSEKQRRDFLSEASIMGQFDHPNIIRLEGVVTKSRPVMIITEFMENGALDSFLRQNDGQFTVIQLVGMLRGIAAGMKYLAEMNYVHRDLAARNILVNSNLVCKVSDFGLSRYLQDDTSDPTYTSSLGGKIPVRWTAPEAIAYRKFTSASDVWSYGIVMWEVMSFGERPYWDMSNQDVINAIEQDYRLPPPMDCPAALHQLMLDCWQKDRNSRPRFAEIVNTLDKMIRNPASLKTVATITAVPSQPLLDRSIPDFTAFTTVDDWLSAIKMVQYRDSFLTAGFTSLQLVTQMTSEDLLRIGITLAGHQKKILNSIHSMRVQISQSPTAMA

[3] = target: Serine/threonine-protein kinase WNK3 (Homo sapiens) (UniProt Q9BYP7); experiment: Inhibition of human WNK3 at 18.6 nM by HotSpot assay relative to control
Serine/threonine-protein kinase WNK3 (Homo sapiens), sequence (Q9BYP7 whole entry): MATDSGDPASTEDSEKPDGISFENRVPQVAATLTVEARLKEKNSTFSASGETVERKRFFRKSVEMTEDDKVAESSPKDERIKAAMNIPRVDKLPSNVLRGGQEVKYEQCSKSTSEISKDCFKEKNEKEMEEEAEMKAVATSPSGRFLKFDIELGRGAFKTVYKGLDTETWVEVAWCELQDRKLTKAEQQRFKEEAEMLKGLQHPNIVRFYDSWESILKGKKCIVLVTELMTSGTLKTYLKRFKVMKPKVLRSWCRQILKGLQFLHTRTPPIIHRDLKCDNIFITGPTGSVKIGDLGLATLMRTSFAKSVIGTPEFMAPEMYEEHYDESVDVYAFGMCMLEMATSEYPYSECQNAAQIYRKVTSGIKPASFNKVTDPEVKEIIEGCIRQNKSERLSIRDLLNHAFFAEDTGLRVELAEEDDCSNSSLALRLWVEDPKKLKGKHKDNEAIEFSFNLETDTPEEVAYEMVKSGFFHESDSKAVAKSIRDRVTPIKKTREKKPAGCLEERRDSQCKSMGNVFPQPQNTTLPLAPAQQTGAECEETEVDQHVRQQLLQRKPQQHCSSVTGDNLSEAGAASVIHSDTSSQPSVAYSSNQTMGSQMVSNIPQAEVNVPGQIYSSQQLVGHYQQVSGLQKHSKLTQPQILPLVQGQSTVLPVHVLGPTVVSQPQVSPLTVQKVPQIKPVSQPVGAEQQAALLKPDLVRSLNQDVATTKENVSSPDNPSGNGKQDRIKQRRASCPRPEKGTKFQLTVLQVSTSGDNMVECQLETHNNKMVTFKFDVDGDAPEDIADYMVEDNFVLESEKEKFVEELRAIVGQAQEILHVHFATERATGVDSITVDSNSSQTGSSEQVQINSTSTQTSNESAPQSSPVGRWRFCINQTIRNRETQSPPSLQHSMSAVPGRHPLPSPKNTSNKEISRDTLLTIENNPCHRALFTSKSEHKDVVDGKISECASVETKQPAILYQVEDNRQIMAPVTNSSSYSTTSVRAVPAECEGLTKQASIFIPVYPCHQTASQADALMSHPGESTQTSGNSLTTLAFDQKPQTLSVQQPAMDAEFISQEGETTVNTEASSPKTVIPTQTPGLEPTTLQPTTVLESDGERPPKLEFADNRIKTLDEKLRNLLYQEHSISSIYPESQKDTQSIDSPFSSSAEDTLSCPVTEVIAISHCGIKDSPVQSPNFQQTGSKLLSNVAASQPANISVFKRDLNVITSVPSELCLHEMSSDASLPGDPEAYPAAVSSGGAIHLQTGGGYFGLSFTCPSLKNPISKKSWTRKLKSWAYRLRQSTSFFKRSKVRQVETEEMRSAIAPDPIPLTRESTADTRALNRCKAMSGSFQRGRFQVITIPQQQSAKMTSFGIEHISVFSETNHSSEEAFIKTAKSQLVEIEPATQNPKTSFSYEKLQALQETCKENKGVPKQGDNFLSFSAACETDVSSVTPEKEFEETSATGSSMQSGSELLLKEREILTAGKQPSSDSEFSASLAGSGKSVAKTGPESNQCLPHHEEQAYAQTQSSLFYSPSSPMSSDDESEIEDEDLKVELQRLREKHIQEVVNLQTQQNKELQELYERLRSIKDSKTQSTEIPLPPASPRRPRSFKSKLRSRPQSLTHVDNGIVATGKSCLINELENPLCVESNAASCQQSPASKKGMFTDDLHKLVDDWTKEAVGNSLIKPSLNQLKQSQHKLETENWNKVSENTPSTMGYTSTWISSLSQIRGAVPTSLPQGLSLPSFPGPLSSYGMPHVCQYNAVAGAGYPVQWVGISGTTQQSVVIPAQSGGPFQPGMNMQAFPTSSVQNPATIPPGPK

[4] = target: Mitogen-activated protein kinase 8 (Homo sapiens) (UniProt P45983); experiment: Inhibition of human JNK1 at 1.82 nM by HotSpot assay relative to control
Mitogen-activated protein kinase 8 (Homo sapiens), sequence (P45983 whole entry): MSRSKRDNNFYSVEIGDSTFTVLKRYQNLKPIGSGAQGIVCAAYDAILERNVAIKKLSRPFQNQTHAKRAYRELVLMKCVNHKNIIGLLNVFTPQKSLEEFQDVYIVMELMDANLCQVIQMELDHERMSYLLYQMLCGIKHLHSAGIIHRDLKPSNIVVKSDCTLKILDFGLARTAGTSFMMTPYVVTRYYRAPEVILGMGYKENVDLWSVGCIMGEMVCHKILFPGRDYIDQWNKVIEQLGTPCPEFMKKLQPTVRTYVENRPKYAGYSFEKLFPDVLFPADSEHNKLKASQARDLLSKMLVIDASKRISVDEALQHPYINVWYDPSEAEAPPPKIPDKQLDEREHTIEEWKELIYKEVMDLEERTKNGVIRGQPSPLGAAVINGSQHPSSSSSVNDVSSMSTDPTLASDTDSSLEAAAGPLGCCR

[5] = target: T3, Testis-specific serine/threonine-protein kinase 2 (Homo sapiens) (UniProt Q96PF2); experiment: Inhibition of human TSSK2 at 1.82 nM by HotSpot assay relative to control
T3 sequence (whole entry): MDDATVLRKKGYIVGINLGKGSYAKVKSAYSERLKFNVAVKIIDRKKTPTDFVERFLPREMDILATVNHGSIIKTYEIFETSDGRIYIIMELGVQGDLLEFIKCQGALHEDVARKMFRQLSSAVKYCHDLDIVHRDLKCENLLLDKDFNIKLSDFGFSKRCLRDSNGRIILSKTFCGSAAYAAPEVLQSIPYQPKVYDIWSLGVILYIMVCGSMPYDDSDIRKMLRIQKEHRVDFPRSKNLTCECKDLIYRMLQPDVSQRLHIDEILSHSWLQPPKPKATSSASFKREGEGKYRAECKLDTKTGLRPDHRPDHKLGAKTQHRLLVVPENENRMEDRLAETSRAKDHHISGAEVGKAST

[6] = target: Serine/threonine-protein kinase pim-3 (Homo sapiens) (UniProt Q86V86); experiment: Inhibition of human PIM3 at 1.82 nM by HotSpot assay relative to control
[7] = target: Myosin light chain kinase, smooth muscle (Homo sapiens) (UniProt Q15746); experiment: Inhibition of human MYLK at 1.82 nM by HotSpot assay relative to control
Myosin light chain kinase, smooth muscle (Homo sapiens), sequence (Q15746 whole entry): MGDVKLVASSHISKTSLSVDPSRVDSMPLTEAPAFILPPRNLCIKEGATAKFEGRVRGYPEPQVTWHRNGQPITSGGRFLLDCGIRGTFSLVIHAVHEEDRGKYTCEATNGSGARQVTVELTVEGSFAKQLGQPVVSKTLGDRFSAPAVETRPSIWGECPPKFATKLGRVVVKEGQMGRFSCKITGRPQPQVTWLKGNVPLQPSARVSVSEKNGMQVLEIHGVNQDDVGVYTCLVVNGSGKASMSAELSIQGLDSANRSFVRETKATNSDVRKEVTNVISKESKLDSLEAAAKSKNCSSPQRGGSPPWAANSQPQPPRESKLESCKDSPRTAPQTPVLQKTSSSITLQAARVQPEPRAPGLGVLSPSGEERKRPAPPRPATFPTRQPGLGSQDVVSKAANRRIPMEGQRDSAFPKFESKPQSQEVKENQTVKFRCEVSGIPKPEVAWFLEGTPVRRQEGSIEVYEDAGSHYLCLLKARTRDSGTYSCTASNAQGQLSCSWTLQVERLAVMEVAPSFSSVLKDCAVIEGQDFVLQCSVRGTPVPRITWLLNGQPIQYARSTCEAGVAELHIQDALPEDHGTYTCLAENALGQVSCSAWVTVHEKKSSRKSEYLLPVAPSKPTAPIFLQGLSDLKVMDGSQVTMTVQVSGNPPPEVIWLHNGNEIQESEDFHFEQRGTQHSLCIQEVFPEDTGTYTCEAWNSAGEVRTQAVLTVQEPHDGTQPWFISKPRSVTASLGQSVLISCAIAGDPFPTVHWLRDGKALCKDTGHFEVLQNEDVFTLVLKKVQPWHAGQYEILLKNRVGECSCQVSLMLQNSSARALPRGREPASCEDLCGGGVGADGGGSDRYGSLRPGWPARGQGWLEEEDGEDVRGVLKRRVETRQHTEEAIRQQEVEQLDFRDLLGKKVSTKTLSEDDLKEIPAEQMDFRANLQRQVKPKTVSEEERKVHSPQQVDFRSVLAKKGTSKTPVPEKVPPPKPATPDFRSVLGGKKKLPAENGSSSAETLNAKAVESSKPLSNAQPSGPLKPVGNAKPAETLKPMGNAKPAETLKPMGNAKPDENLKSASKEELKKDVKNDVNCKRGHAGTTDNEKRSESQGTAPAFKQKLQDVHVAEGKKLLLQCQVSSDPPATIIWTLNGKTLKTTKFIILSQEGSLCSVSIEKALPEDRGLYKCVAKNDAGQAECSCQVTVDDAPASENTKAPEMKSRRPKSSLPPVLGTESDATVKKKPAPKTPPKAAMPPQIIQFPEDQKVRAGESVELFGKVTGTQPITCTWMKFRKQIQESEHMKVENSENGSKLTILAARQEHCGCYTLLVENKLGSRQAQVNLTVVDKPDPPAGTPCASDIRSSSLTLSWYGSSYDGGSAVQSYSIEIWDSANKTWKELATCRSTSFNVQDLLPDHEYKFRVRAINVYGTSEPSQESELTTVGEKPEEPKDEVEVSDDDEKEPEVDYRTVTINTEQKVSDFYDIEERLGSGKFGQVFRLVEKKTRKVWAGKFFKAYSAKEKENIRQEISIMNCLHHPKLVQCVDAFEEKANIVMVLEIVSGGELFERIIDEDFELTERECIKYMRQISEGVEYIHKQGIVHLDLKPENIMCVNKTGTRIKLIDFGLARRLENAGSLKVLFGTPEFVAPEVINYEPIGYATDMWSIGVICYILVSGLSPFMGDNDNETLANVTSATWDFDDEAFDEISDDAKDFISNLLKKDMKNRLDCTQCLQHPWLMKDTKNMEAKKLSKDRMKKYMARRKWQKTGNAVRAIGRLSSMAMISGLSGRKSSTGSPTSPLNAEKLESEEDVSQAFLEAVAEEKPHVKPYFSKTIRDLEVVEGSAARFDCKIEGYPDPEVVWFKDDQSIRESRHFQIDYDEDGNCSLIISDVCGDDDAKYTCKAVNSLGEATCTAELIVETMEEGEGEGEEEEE

[8] = target: Calcium/calmodulin-dependent protein kinase type II subunit alpha (Homo sapiens) (UniProt Q9UQM7); experiment: Inhibition of human CAMK2a at 1.82 nM by HotSpot assay relative to control
[9] = target: Phosphorylase b kinase gamma catalytic chain, skeletal muscle/heart isoform (Homo sapiens) (UniProt Q16816); experiment: Inhibition of human PHKg1 at 1.82 nM by HotSpot assay relative to control
Phosphorylase b kinase gamma catalytic chain, skeletal muscle/heart isoform (Homo sapiens), sequence (Q16816 whole entry, looked up, canonical isoform): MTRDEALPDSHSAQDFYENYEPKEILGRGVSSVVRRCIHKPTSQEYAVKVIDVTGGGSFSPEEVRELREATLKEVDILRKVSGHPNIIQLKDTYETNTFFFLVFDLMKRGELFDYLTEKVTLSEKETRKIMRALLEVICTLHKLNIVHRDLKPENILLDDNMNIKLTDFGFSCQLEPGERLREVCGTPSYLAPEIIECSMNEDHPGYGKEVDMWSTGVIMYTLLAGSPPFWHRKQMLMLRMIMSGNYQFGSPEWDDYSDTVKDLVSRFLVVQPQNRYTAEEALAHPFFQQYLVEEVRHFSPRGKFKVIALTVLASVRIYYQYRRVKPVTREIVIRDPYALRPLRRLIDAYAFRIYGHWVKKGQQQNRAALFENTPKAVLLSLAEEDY

inhibition [1] | inhibition [2] | inhibition [3] | inhibition [4] | inhibition [5] | inhibition [6] | inhibition [7] | inhibition [8] | inhibition [9] | Compound
0.1% | -4.68% | 6.05% |  |  |  |  |  |  | C[C@]1(O)C[C@@H](c2nc(-c3ccc4ccc(-c5ccccc5)nc4c3)c3c(N)nccn32)C1
 |  |  | -1.19% | -1.46% | 19.1% | 2.24% | -2.76% | 2.68% | C[C@@]1(C(=O)Nc2ccc(F)nc2)CCCN1c1nc(Nc2cc(C3CC3)n[nH]2)c2cccn2n1
